Here are results for 30 compounds from ChEMBL document CHEMBL1125091, “Antiulcer agents. 4-substituted 2-guanidinothiazoles: reversible, competitive, and selective inhibitors of gastric H+,K(+)-ATPase” (J Med Chem, 1990).

A word on the IC50: it is the concentration needed to halve the response being measured. Lower therefore signals inhibition by little substance. The term inhibition denotes the change of the read-out against control, counted positive when it falls.

The structures appear in SMILES notation.

Test [1] concerns the target Potassium-transporting ATPase (Canis familiaris). In words: Inhibitory activity against dog gastric proton-pump enzyme H+/K+ ATPase.
Test [2] relates to Potassium-transporting ATPase (Canis familiaris). In words: Percent inhibition of gastric proton-pump enzyme H+/K+ ATPase was determined at 50 uM. As to conditions: Canis lupus familiaris, Stomach.

For `Cc1ccc(C/N=C(\N)Nc2nc(-c3c[nH]c(C)c3)c(C)s2)cc1`, half-maximal inhibition in test [1] (IC50) required 2.9 µM. Further, the inhibition in test [2] turned out to be 95%.
Turning to `N=C(N)Nc1nc(-c2cccc(Cl)c2)cs1`, the IC50 in test [1] worked out at 53 µM. In test [2], the inhibition is 48%.
Consider `CN(C)c1ccc(-c2csc(N=C(N)N)n2)cc1`, for which it took 14 µM to reach half-maximal inhibition in test [1] (IC50). Further, the inhibition in test [2] was found to be 75%.
In test [1], `N=C(N)Nc1nc(-c2ccc(O)cc2)cs1` showed an IC50 of 15 µM. In addition, in test [2], the inhibition turned out to be 75%.
For `Cc1sc(N=C(N)N)nc1-c1ccc(O)c(O)c1`, the IC50 in test [1] was 1.6 µM. Besides, in test [2], the inhibition came out at 97%.
The like results for `COC(=O)c1ccc2[nH]cc(-c3csc(N=C(N)N)n3)c2c1` were, in that order, 6.7 µM and 86%.
Regarding `Cc1sc(N=C(N)N)nc1-c1ccn(S(=O)(=O)c2ccccc2)c1C`, the IC50 in test [1] was 4.2 µM. Besides, the inhibition in test [2] was determined as 100%.
`COc1cccc(-c2csc(N=C(N)N)n2)c1` showed an IC50 in test [1] of 60 µM. The inhibition in test [2] was found to be 48%.
In test [1], `Cc1ccc2c(-c3csc(NC(=N)NCc4ccccc4)n3)c[nH]c2c1` yielded an IC50 of 1.6 µM. For the same compound, the inhibition in test [2] was 98%.
Regarding `Cc1cccc(-c2csc(N=C(N)N)n2)c1`, it took 32 µM to reach half-maximal inhibition in test [1] (IC50). Also, in test [2], the inhibition was 60%.
In test [1], `Cc1sc(N=C(N)N)nc1-c1c[nH]c2ccccc12` displayed a 50% inhibitory concentration (IC50) of 7.6 µM. In addition, the inhibition in test [2] was determined as 92%.
The compound `Cc1[nH]c2ccc(Cl)cc2c1-c1nc(NC(=N)NCc2ccccc2)sc1C` returned a half-maximal inhibitory concentration (IC50) in test [1] of 1.1 µM. For the same compound, the inhibition in test [2] came out at 100%.
The like results for `Cc1ccc2[nH]cc(-c3csc(N=C(N)N)n3)c2c1` were, in that order, 1.8 µM and 76%.
For the compound `Cc1[nH]ccc1-c1nc(NC(=N)NCc2ccccc2)sc1C`, in test [1], the IC50 amounted to 8.8 µM. In addition, in test [2], the inhibition turned out to be 80%.
Compound `N=C(NCc1ccccc1)Nc1nc(-c2ccccc2Cl)cs1` registered an IC50 in test [1] of 6 µM. The inhibition in test [2] was found to be 99%.
In turn, `N=C(NCc1ccccc1)Nc1nc(-c2c[nH]c3ccc(F)cc23)cs1` showed an IC50 in test [1] of 2.7 µM. Besides, the inhibition in test [2] came out at 96%.
In test [1], `Cc1ccccc1-c1csc(NC(=N)NCc2ccccc2)n1` showed an IC50 of 10 µM. The inhibition in test [2] was 111%.
As for `Cc1c(-c2csc(N=C(N)N)n2)ccn1S(=O)(=O)c1ccccc1`, inhibition in test [1] was half-maximal at 2 µM (IC50). In test [2], the inhibition turned out to be 101%.
For the compound `Cc1ccccc1-c1csc(N=C(N)N)n1`, in test [1], half-maximal inhibition (IC50) required 20 µM. Besides, the inhibition in test [2] was determined as 78%.
The like results for `N=C(NCc1ccccc1)Nc1nc(-c2c[nH]c3ccc(OCc4ccccc4)cc23)cs1` were, in that order, 1.8 µM and 90%.
As for `Cc1sc(N=C(N)N)nc1-c1c[nH]c2ccc(Cl)cc12`, inhibition in test [1] was half-maximal at 0.59 µM (IC50). For the same compound, in test [2], the inhibition was 99%.
For the compound `Cc1cc(-c2csc(N=C(N)N)n2)cn1C`, the IC50 in test [1] came to 24 µM. Moreover, the inhibition in test [2] came out at 74%.
Consider `Cc1cc(-c2nc(NC(=N)NCCc3ccccc3)sc2C)c[nH]1`, for which half-maximal inhibition in test [1] (IC50) required 9.1 µM. The inhibition in test [2] turned out to be 87%.
For `N=C(N)Nc1nc(-c2ccc(N)cc2)cs1`, in that order: 32 µM and 63%.
Compound `Cc1[nH]c2ccc(Cl)cc2c1-c1nc(N=C(N)N)sc1C` showed an IC50 in test [1] of 0.6 µM. Moreover, the inhibition in test [2] came out at 103%.
Take `COC(=O)c1ccc2[nH]cc(-c3csc(NC(=N)NCc4ccccc4)n3)c2c1`: the IC50 in test [1] stood at 3.1 µM. The inhibition in test [2] turned out to be 94%.
`CN(C)Cc1cccc(-c2csc(N=C(N)N)n2)c1` showed an IC50 in test [1] of 37 µM. Further, the inhibition in test [2] was 56%.
The like results for `N=C(N)Nc1nc(-c2c[nH]c3ccc(OCc4ccccc4)cc23)cs1` were, in that order, 1.2 µM and 78%.
In the case of `Cc1cc(-c2nc(NC(=N)NCc3ccccc3)sc2C)c[nH]1`, in test [1], the IC50 amounted to 7.9 µM. In addition, the inhibition in test [2] stood at 83%.
`Cc1ccc(-c2csc(NC(=N)NCc3ccccc3)n2)n1S(=O)(=O)c1ccccc1`: the IC50 in test [1] was 26 µM. Besides, the inhibition in test [2] came out at 57%.
